Experiments:
[1] = test system: Influenza A/H1N1/PR8; type: cell-based; details: 10 μM; 24 h; MOI~1; eight fields at 20×; n=4; Influenza alone 316±19 cells; p<0.0001
[2] = test system: respiratory syncytial virus (RSV); test: RSV infection of epithelial HeLa cell cultures, viral quantification by TCID50; type: cell-based
Experimental: To study the effect of a selective EGFR inhibitor on RSV infection, viral quantification by tissue culture-infective dose (TCID50)/100 μL in epithelial HeLa cell cultures treated with or without the selective EGFR tyrosine kinase inhibitor AG 1478 was used. […] FIG. 4A, RSV alone 10^2.5±1 TCID50 vs RSV plus AG 1478 (10 μM) 0 TCID50; n=2. FIG. 4B, RSV alone 10^4.38±0.1 TCID50 vs RSV plus AG 1478 (1 μM) 0 TCID50; n=2.
FIGS. 4A and 4B. Viral quantification by tissue culture-infective dose (TCID50)/100 μL in epithelial cell cultures treated with or without the selective EGFR inhibitor, AG 1478 [(A) AG1478 (10 μM) in TCID50/100 μL at 2 days ±SEM, (n=2 separate experiments); (B) AG 1478 (1 μM) in TCID50/100 μL at 4 days ±SEM, (n=2 separate experiments).
A similar set of experiments was conducted, to test the effect of Gefitinib (Iressa; ZD 1839; N-(3-chloro-4-fluoro-phenyl)-7-methoxy-6-(3-morpholin-4-ylpropoxy)quinazolin-4-amine) on RSV infection. Gefitinib (1 and 10 μM) suppressed RSV virus infection. The data are shown in FIG. 5 (RSV alone 10^1.5 TCID50 (first column), RSV plus Gefitinib (1 μM) 0 TCID50 (second column), and RSV plus Gefitinib (10 μM) 0 TCID50 (third column); n=1).
FIG. 5. Viral quantification by tissue culture-infective dose (TCID50)/100 μL at 2 days in epithelial cell cultures treated with or without the selective EGFR inhibitor, Gefitinib. RSV alone (first column), RSV plus Gefitinib (1 μM, second column), and RSV plus Gefitinib (10 μM, third column); n=1.

[3] = test system: Rhinovirus 16; test: Rhinovirus 16 infection of HeLa cells measured by flow cytometry; type: cell-based, Rhinovirus 16 (major group) in HeLa cells; details: RV16 MOI 10, 6 h, RV alone 62%, control 1%
Experimental: HeLa is an epithelial cell line that is routinely used to evaluate Rhinovirus infection. HeLa; American Type Culture Collections (ATCC) No. CCL-2. Here, HeLa cell cultures were treated with serum-free medium (Control), or with serum-free medium containing Rhinovirus 16 (major group RV at multiplicity of infection (MOI) 10) with and without a selective EGFR tyrosine kinase inhibitor (AG 1478). After 6 h, cell cultures were collected and stained with a monoclonal antibody that selectively binds to Rhinovirus. Cells were processed for flow cytometry and Rhinovirus infection in HeLa cells was measured. The data, shown in FIG. 2, are expressed as percent infected cells. Control (no RV): 1%; RV: 62%; RV+AG1478 (5 μM): 13%; and RV+AG1478 (10 μM): 9%. […] No effect with a platelet derived growth factor (PDGF) inhibitor (another tyrosine kinase inhibitor) was observed.

[4] = test system: Rhinovirus 16; test: Rhinovirus 16 infection of NCI-H292 airway epithelial cells, quantified by viral plaque assay on HeLa cells; type: cell-based, Rhinovirus 16 (major group) in human NCI-H292 cells; details: AG 1478 10 μM; RV16 MOI 10; NCI-H292 cell lysates; n=2
Experimental: The effect of an EGF-R inhibitor on rhinovirus infectivity was assayed. First, human airway epithelial (NCI-H292 American Type Culture Collection Catalog No. CRL-1848) cells were treated with Rhinovirus 16 (major group Rhinovirus (RV) at multiplicity of infection (MOI) 10) or RV16 plus a selective EGFR tyrosine kinase inhibitor (AG 1478) at 10 μM. Cell lysates from these NCI-H292 cell cultures were collected at […]. To quantitate Rhinovirus infection in airway epithelial cells, cell lysates were analyzed by viral plaque assay, a technique that is commonly utilized to measure viral infection. Next, serial dilutions of NCI-H292 cell lysates were placed on HeLa cell cultures for a standard plaque assay. Cell cultures were covered with an agarose overlay. Cultures were incubated for three days. After three days, cell cultures were stained with crystal violet and the number of plaques was counted. […] FIG. 1A. […]
The effect of an antibody specific for EGF-R on Rhinovirus 16 (RV16) infection was also assessed. […]
FIGS. 1A and 1B. Viral quantification of Rhinovirus infection by plaque assay. […] Cell lysates were collected after 24 h and Rhinovirus infection was quantified by plaque assay [(A) n=2±SEM; (B) n=1].

SMILES | cells staining positive for Influenza [1] | RSV tissue culture-infective dose (TCID50) ([2]; 1 μM, at 4 days, HeLa, RSV alone 10^4.38±0.1, n=2) | RSV tissue culture-infective dose (TCID50) ([2]; 10 μM, at 2 days, HeLa) | percent infected cells ([3]; 5 μM) | percent infected cells ([3]; 10 μM) | Rhinovirus infection by plaque assay [4] | RSV tissue culture-infective dose (TCID50) ([2]; 1 μM, at 2 days, RSV alone 10^1.5, n=1)
COc1cc2ncnc(Nc3cccc(Cl)c3)c2cc1OC [AG 1478, 4-(3-chlorophenylamino)-6,7-dimethoxyquinazoline] | 94±49 cells | 0 TCID50/100 μL | 0 TCID50/100 μL | 13% | 9% | suppress rhinovirus infection | –
COc1cc2ncnc(Nc3ccc(F)c(Cl)c3)c2cc1OCCCN1CCOCC1 [Gefitinib, N-(3-chloro-4-fluoro-phenyl)-7-methoxy-6-(3-morpholin-4-ylpropoxy)quinazolin-4-amine] | – | – | 0 TCID50/100 μL | – | – | – | 0 TCID50/100 μL
